Test results taken from patent publication EP0069521A2, “Pyridinyl and imidazolyl derivatives of benzofurans and benzothiophenes” (THE UPJOHN COMPANY, priority 1981, dated 1983).

Biological target: T1, TXA2 synthetase (Homo sapiens, UniProt P24557)
T1 construct: generated by mixing prostaglandin H2 (PGHz) with human platelet microsomes (HPM); from tissue; host or cells: human platelet microsomes
T1 sequence (P24557 1-533): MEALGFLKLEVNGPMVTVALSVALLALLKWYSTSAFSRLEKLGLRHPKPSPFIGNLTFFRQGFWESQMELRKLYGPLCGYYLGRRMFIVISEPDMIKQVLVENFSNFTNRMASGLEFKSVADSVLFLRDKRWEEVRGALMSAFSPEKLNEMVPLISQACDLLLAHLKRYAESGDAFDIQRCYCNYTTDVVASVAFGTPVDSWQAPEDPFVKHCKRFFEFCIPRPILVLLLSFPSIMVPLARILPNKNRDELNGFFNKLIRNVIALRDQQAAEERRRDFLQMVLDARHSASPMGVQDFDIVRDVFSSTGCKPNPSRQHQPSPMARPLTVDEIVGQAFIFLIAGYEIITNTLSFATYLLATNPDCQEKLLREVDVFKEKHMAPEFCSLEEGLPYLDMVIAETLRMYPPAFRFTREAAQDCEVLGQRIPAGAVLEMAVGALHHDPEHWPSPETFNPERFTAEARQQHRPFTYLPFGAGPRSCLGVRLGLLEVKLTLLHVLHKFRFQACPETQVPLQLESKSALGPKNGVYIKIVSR
Assay: TXA2 inhibition test: TXA2 generated by mixing PGH2 with human platelet microsomes, response of superfused rabbit aortic strips
Format: biochemical
Conditions: inhibiting TXA2 formation; test compound added to human platelet microsomes 5 minutes before mixing with PGH2; rabbit aorta response
Protocol: The compounds of the present invention were tested for TXA2 inhibition as follows: • Rabbit aortic strips were superfused in series with Krebs solution. Thromboxane Az (TXA2) was generated by mixing prostaglandin H2 (PGHz) with human platelet microsomes (HPM).
Potential inhibitors were tested by comparing the response of the rabbit aorta to the amount of TXA2 produced by mixing PGH2 and HPM without the test compound in the reaction medium and then the amount of TXA2 produced when the test compound was added to the HPM 5 minutes before the HPM was mixed with PGH2. […] For a discussion of TXA2 synthetase inhibition testing see, e.g., R. Gorman, supra.

approximate ED50: ~0.01 µg/mL
Structure (SMILES): O=C([O-])c1cc2cc(Cc3cccnc3)ccc2o1.[Na+] [Example A-2, Sodium 5-(3'-pyridinylmethyl)benzofuran-2-carboxylate]
